Laboratory results taken from ChEMBL document CHEMBL3414554, “Novel 1-(2-aryl-2-adamantyl)piperazine derivatives with antiproliferative activity” (Eur J Med Chem, 2015).
pIC50: −log10 of the molar value.

Key:
[1] = Cytotoxicity against human MIAPaCa2 cells after 24 hrs by MTT colorimetric assay; assay type: functional, cell-based; conditions: MIA PaCa-2, 24 h
HeLa = test: Cytotoxicity against human HeLa cells after 24 hrs by MTT colorimetric assay; assay type: functional, cell-based
NCI-H1975 = test: Cytotoxicity against human NCI-H1975 cells after 24 hrs by MTT colorimetric assay; assay type: functional, cell-based; conditions: NCI-H1975, 24 h
NHDF = test: Cytotoxicity against NHDF cells after 48 hrs by SRB staining assay; assay type: cell-based; conditions: human
HUVEC = test: Cytotoxicity against HUVEC cells after 48 hrs by SRB staining assay; assay type: cell-based; conditions: human
MDA-MB-231 = test: Cytotoxicity against human MDA-MB-231 cells after 24 hrs by MTT colorimetric assay; assay type: functional, cell-based; conditions: MDA-MB-231, 24 h
[2] = Displacement of [3H]BTX-B from neuronal Na+ channel in male Sprague-Dawley rat brain synaptosomal membrane vesicles by liquid scintillation spectrometry; assay type: tissue-based
[3] = Displacement of [3H]-DTG from sigma-2 receptor in rat cerebral cortex membranes in presence of (+)-pentazocine by liquid scintillation spectrometry; assay type: cell membranes, Membrane
Jurkat = test: Selectivity ratio of IC50 for sigma-2 receptor in rat cerebral cortex membranes to IC50 for sigma-1 receptor in human Jurkat cell membrane; assay type: cell-based
[4] = biological target: Sigma non-opioid intracellular receptor 1 (Homo sapiens, UniProt Q99720); test: Displacement of [3H]-(+)-pentazocine from sigma-1 receptor in human Jurkat cell membrane by liquid scintillation spectrometry; assay type: cell membranes
Sequence of Sigma non-opioid intracellular receptor 1 (Q99720 whole entry): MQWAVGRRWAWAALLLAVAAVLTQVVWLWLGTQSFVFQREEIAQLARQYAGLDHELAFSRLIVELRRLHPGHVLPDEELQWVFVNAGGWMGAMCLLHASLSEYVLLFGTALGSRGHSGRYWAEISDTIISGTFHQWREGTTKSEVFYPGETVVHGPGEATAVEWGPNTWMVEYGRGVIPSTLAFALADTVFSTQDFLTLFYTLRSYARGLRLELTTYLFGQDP

Structure (SMILES)	pIC50 [1]	pIC50 (HeLa)	pIC50 (NCI-H1975)	LC50 (NHDF) [µM]	LC50 (HUVEC) [µM]	pIC50 (MDA-MB-231)	pIC50 [2]	pIC50 [3]	Ratio IC50 (Jurkat)	pIC50 [4]
Fc1ccc(C2(N3CCNCC3)C3CC4CC(C3)CC2C4)cc1.O=C(O)/C=C\C(=O)O (centres undefined)	4.93	4.89	4.89	93.66	> 100	4.84	–	–	–	–
O=C(c1ccc(Cl)s1)N1CCN(C2(c3ccccc3)C3CC4CC(C3)CC2C4)CC1 (centres undefined)	4.91	4.89	4.90	–	–	4.94	–	–	–	–
O=C(O)/C=C\C(=O)O.c1ccc(C2(N3CCNCC3)C3CC4CC(C3)CC2C4)cc1 (centres undefined)	4.91	5.04	4.76	90	95.45	5.08	–	–	–	–
O=C(CN1CCCCC1)N1CCN(C2(c3ccccc3)C3CC4CC(C3)CC2C4)CC1 (centres undefined)	4.91	4.91	4.79	58.43	60.35	4.94	5.61	5.48	24.7	6.87
O=C(CN1CCCCC1)N1CCN(C2(c3ccc(F)cc3)C3CC4CC(C3)CC2C4)CC1 (centres undefined)	4.84	5.08	4.90	85.26	88.78	5.17	–	–	–	–
CN1CCN(C2(c3ccc(F)cc3)C3CC4CC(C3)CC2C4)CC1 (centres undefined)	4.78	4.82	4.84	–	–	4.80	–	–	–	–
Nc1ccn([C@@H]2O[C@H](CO)[C@@H](O)C2(F)F)c(=O)n1 [GEMCITABINE]	6.22	5.48	–	–	–	6.72	–	–	–	–
O=C(N1CCN(C2(c3ccccc3)C3CC4CC(C3)CC2C4)CC1)n1ccnc1 (centres undefined)	4.87	4.91	4.98	98.16	> 100	4.87	–	–	–	–
CCOC(=O)N1CCN(C2(c3ccccc3)C3CC4CC(C3)CC2C4)CC1 (centres undefined)	4.60	4.64	4.62	100	> 100	4.55	–	–	–	–
CCOC(=O)N1CCN(C2(c3ccc(F)cc3)C3CC4CC(C3)CC2C4)CC1 (centres undefined)	4.73	4.84	4.76	–	–	4.68	–	–	–	–
CN1CCN(C2(c3ccccc3)C3CC4CC(C3)CC2C4)CC1 (centres undefined)	4.71	4.76	4.73	–	–	4.76	–	–	–	–
